Structures are written as SMILES.

In test [1] the target is T1, Protein farnesyltransferase (Homo sapiens, UniProt P49354+P49356). Nature of the test: Inhibition of human recombinant farnesyltransferase using farnesylpyrophosphate and dansyl-GCVLS as substrate at 100 uM measured for 15 mins by fluorescence assay. It counts as protein-complex assay.
For test [2], the target named is T1, Protein farnesyltransferase. Nature of the test: Inhibition of human recombinant farnesyltransferase using farnesylpyrophosphate and dansyl-GCVLS as substrate measured for 15 mins by fluorescence assay. It counts as protein-complex assay.

Broadly, the inhibition is the drop in the measured response relative to a control, in per cent. For orientation: IC50 means the concentration at which inhibition is half-maximal. Consider `COc1ccn2c(C(=O)/C=C/c3ccc(Cl)cc3)cc(C(=O)O)c2c1`, for which the inhibition in test [1] turned out to be 88%. Also, the IC50 in test [2] came out at 2330 nM.

Turning to `CCOC(=O)c1cc(C(=O)/C=C/c2cc(OC)c(OC)c(OC)c2)n2ccccc12`, in test [1], the inhibition was 94%. Also, the IC50 in test [2] was determined as 19300 nM.

For the molecule `CCOC(=O)c1cc(C(=O)/C=C/c2ccc3c(c2)Sc2ccccc2N3C)n2ccc(C)cc12`, the inhibition in test [1] came to 98%. Also, in test [2], the IC50 was determined as 155 nM.

Regarding `CCOC(=O)c1cc(C(=O)/C=C/c2ccc3c(c2)Sc2ccccc2N3C)n2ccc(OC)cc12`, the inhibition in test [1] was 84%. For the same molecule, the IC50 in test [2] was found to be 711 nM.

In the case of `CCOC(=O)c1cc(C(=O)/C=C/c2cc(OC)c(OC)c(OC)c2)n2c(C)cccc12`, in test [1], the inhibition is 7%.

As to `CCOC(=O)c1cc(C(=O)/C=C/c2ccc(Br)cc2)n2ccc(OC)cc12`, the inhibition in test [1] stood at 100%. Also, the IC50 in test [2] turned out to be 602 nM.

On to `CCOC(=O)c1cc(C(=O)/C=C/c2ccc(-c3ccccc3)cc2)n2ccc(OC)cc12`, for which the inhibition in test [1] was 95%. Further, the IC50 in test [2] was determined as 1320 nM.

`CCOC(=O)c1cc(C(=O)/C=C/c2cc(OC)c(OC)c(OC)c2)n2ccc(OC)cc12`: the inhibition in test [1] is 76%. For the same molecule, the IC50 in test [2] was 11600 nM.

`COc1cc(/C=C/C(=O)c2cc(C(=O)O)c3c(C)cc(C)cn23)cc(OC)c1OC`: the inhibition in test [1] came to 88%. The IC50 in test [2] amounted to 15900 nM.

For `CCOC(=O)c1cc(C(=O)/C=C/c2ccc(C#N)cc2)n2ccc(OC)cc12`, the inhibition in test [1] stood at 95%. For the same molecule, the IC50 in test [2] worked out at 8740 nM.

In the case of `COc1cc(/C=C/C(=O)c2ccc3c(C)cc(C)cn23)cc(OC)c1OC`, the inhibition in test [1] was 88%. For the same molecule, the IC50 in test [2] came out at 726 nM.

As for `CSCC[C@H](NC(=O)c1ccc(NC[C@@H](N)CS)cc1-c1ccccc1)C(=O)O`, the inhibition in test [1] worked out at 100%.

Consider `CCOC(=O)c1cc(C(=O)/C=C/c2ccc3c(c2)Sc2ccccc2N3C)n2ccccc12`, for which the inhibition in test [1] was 85%. Further, in test [2], the IC50 was 9 nM.

On to `CCOC(=O)c1cc(C(=O)/C=C/c2ccc3c(c2)Sc2ccccc2N3C)n2c(C)cccc12`, for which, in test [1], the inhibition was 91%. Also, the IC50 in test [2] stood at 23 nM.

Take `CCOC(=O)c1cc(C(=O)/C=C/c2ccc(OC)cc2)n2ccc(OC)cc12`: in test [1], the inhibition was 68%.

Consider `CCOC(=O)c1cc(C(=O)/C=C/c2ccc(Cl)cc2)n2ccc(OC)cc12`, for which the inhibition in test [1] stood at 85%. For the same molecule, the concentration for half-maximal inhibition (IC50) in test [2] came to 931 nM.
